Data: US20060160789A1 (priority 2005, published 2006)
Where “and” joins values, the source holds several entries; their conditions need not be identical. Equal entries are not always repeated.

Test system: patients hospitalized for a laparotomy in the context of digestive surgery
Conditions: human, in vivo

Which results are given for CN1CCOC(c2ccccc2)c2ccccc2C1 (centres unmarked) [nefopam]?
Morphine PCA over 24 h: 0.255 mg/kg and 0.454 mg/kg; Morphine titration (mg): 7.5 mg and 9 mg; Morphine titration (mg/kg): 0.082 mg/kg and 0.130 mg/kg; Total morphine over 24 h: 0.365 mg/kg and 0.649 mg/kg; quantity of morphine titration administered for group 4 versus quantity expected if nefopam only had analgesic effects: smaller than that which would have had to be administered to the group if nefopam only had analgesic effects
